The target in experiment [1] is T1, beta-catenin/TCF4 engagement (Homo sapiens, UniProt P35222).
T1 construct: expressed in transfected cells; host or cells: HEK293
T1 sequence (P35222 1-781): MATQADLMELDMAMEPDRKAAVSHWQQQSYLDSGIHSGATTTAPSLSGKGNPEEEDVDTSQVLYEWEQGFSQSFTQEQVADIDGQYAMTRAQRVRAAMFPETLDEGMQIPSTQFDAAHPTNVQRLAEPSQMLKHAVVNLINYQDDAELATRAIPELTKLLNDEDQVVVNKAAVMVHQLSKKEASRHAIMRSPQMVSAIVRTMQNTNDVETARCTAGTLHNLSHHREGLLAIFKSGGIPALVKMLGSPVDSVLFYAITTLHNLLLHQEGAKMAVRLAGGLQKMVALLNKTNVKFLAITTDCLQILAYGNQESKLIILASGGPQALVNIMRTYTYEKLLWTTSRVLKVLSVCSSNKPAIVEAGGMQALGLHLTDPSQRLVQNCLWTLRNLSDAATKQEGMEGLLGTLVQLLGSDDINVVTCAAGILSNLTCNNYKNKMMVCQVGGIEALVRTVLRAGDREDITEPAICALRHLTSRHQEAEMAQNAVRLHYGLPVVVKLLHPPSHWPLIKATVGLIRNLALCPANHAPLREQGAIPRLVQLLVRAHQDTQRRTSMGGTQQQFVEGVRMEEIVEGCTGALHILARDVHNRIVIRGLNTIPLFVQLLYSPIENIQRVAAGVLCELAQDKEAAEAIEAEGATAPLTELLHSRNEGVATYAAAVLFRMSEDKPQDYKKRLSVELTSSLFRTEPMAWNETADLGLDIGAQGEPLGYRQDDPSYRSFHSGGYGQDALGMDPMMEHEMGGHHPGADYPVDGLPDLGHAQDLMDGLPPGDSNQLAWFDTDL
The experiment is described as follows: Nano-BRET target engagement assay (B-cat-Halo & TCF4-Luc in HEK293 cells). It counts as cell-based. The settings on record: read-out: NanoBRET Abs IC50.

Experiment [2] deals with T2, full-length beta-Catenin (Uniprot ID P35222) (Homo sapiens, UniProt P35222).
T2 construct: 10 nM full-length beta-Catenin (Uniprot ID P35222)
T2 sequence (P35222 1-781): T1 sequence (P35222 1-781)
The experiment in a line: Fluorescence polarization IC50 (beta-catenin / 5FAM-TCF4 10-53 competition). Type of experiment: binding. As to conditions: fluorescence polarization; read-out: beta-Catenin FP IC50.

The structures appear in SMILES notation. Where two headings read alike, the source gives them in different places.

`CC[C@@H]1NC(=O)[C@H](Cc2ccccc2)NC(=O)[C@H](C)NC(=O)C(C)(C)NC(=O)[C@H](Cc2cccc(C(=O)O)c2)NC(=O)[C@H](CC(=O)O)NC(=O)C2(CCCC=CCCCOC(=O)N3CC[C@@](C(=O)N[C@@H](Cc4ccsc4)C(=O)N[C@@H](Cc4csc5ccccc45)C(=O)N[C@@H](CCC(=O)N4CCC(N5CCCCC5)CC4)C(N)=O)(C3)NC1=O)CCCC=CC[C@]1(CCCN1C(C)=O)C(=O)N[C@@H](CC(=O)O)C(=O)N[C@@H](CC(C)(C)C)C(=O)N2` (stereo partly drawn) [I-2560, Ac-PL3-Asp-Npg-B5-Asp-3COOHF-Aib-Ala-Phe-Abu-PyrS2-3Thi-BztA-[4Pippip]GlnR-NH2]: the IC50 in experiment [1] (absolute IC50) stood at 19300 nM; in experiment [2] it was 9 nM.

Turning to `CC[C@@H]1NC(=O)[C@H](Cc2ccccc2)NC(=O)[C@H](C)NC(=O)C(C)(C)NC(=O)[C@H](Cc2cccc(C(=O)O)c2)NC(=O)[C@H](CC(=O)O)NC(=O)C2(CCCC=CCCCOC(=O)N3CC[C@@](C(=O)N[C@@H](Cc4ccsc4)C(=O)N[C@@H](Cc4csc5ccccc45)C(=O)N[C@@H](CCC(=O)N4CCN(C(C)=O)CC4)C(N)=O)(C3)NC1=O)CCCC=CC[C@]1(CCCN1C(C)=O)C(=O)N[C@@H](CC(=O)O)C(=O)N[C@@H](CC(C)(C)C)C(=O)N2` (stereo partly drawn) [I-2561, Ac-PL3-Asp-Npg-B5-Asp-3COOHF-Aib-Ala-Phe-Abu-PyrS2-3Thi-BztA-[AcPpz]GlnR-NH2], the IC50 turned out to be 7200 nM in experiment [1] (absolute IC50) and 5 nM in experiment [2].

On to `CC(=O)N[C@]1(C)CC=CCCCC2(CCCC=CCCCOC(=O)N3CC[C@@](C(=O)N[C@@H](Cc4ccccc4C(F)(F)F)C(=O)N[C@@H](Cc4csc5ccccc45)C(=O)N[C@@H](CCC(N)=O)C(N)=O)(C3)NC(=O)[C@H](CC(C)C)NC(=O)[C@H](Cc3ccccc3)NC(=O)[C@H](C)NC(=O)[C@H](C)NC(=O)[C@H](Cc3cccc(C(=O)O)c3)NC(=O)[C@H](CC(=O)O)NC2=O)NC(=O)[C@H](CC(C)(C)C)NC(=O)[C@H](CC(=O)O)NC1=O` (stereo partly drawn) [I-2563, Ac-R3-Asp-Npg-B5-Asp-3COOHF-Ala-Ala-Phe-Leu-PyrS2-2F3MeF-BztA-Gln-NH2], for which the half-inhibitory concentration (IC50) is 17000 nM in experiment [1] (absolute IC50) and 48 nM in experiment [2].

For the molecule `CC(=O)N[C@]1(C)CCCC=CCCCC2(CCCC=CCCCOC(=O)N3CC[C@@](C(=O)N[C@@H](Cc4ccccc4C(F)(F)F)C(=O)N[C@@H](Cc4csc5ccccc45)C(=O)N[C@@H](CCC(N)=O)C(N)=O)(C3)NC(=O)[C@H](CC(C)C)NC(=O)[C@H](Cc3ccccc3)NC(=O)[C@H](C)NC(=O)[C@H](C)NC(=O)[C@H](Cc3cccc(C(=O)O)c3)NC(=O)[C@H](CC(=O)O)NC2=O)NC(=O)[C@H](CC(C)(C)C)NC(=O)[C@H](CC(=O)O)NC1=O` (stereo partly drawn) [I-2565, Ac-R5-Asp-Npg-B5-Asp-3COOHF-Ala-Ala-Phe-Leu-PyrS2-2F3MeF-BztA-Gln-NH2], the half-inhibitory concentration (IC50) worked out at 21000 nM in experiment [1] and 90 nM in experiment [2].

As for `CC(=O)N[C@]1(C)CCCCCCCCC2(CCCCCCCCOC(=O)N3CC[C@@](C(=O)N[C@@H](Cc4ccccc4C(F)(F)F)C(=O)N[C@@H](Cc4csc5ccccc45)C(=O)N[C@@H](CCC(N)=O)C(N)=O)(C3)NC(=O)[C@H](CC(C)C)NC(=O)[C@H](Cc3ccccc3)NC(=O)[C@H](C)NC(=O)[C@H](C)NC(=O)[C@H](Cc3cccc(C(=O)O)c3)NC(=O)[C@H](CC(=O)O)NC2=O)NC(=O)[C@H](CC(C)(C)C)NC(=O)[C@H](CC(=O)O)NC1=O` (stereo partly drawn) [I-2571, Ac-R5-Asp-Npg-B5-Asp-3COOHF-Ala-Ala-Phe-Leu-PyrS2-2F3MeF-BztA-Gln-NH2], the values for the IC50 in experiment [1] and in experiment [2] were 24000 nM and 42 nM, respectively.

In the case of `CC(=O)N1CCC[C@H]1C(=O)N[C@]1(C)CCCCCCC2(CCCCCCCCOC(=O)N3CC[C@@](C(=O)N[C@@H](Cc4ccccc4C(F)(F)F)C(=O)N[C@@H](Cc4csc5ccccc45)C(=O)N[C@@H](CCC(N)=O)C(N)=O)(C3)NC(=O)[C@H](CC(C)C)NC(=O)[C@H](Cc3ccccc3)NC(=O)[C@H](C)NC(=O)[C@H](C)NC(=O)[C@H](Cc3cccc(C(=O)O)c3)NC(=O)[C@H](CC(=O)O)NC2=O)NC(=O)[C@H](CC(C)(C)C)NC(=O)[C@H](CC(=O)O)NC1=O` (stereo partly drawn) [I-2572, Ac-Pro-R3-Asp-Npg-B5-Asp-3COOHF-Ala-Ala-Phe-Leu-PyrS2-2F3MeF-BztA-Gln-NH2], the 50% inhibitory concentration (IC50) was greater than 20000 nM in experiment [1] and 67 nM in experiment [2].

On to `CC(=O)N1CCC[C@]12CC=CCCCC1(CCCC=CCCCOC(=O)N3CCC(C(=O)N[C@@H](Cc4ccccc4C(F)(F)F)C(=O)N[C@@H](Cc4csc5ccccc45)C(=O)N[C@@H](CCC(N)=O)C(N)=O)(CC3)NC(=O)[C@H](CC(C)C)NC(=O)[C@H](Cc3ccccc3)NC(=O)[C@H](C)NC(=O)[C@H](C)NC(=O)[C@H](Cc3cccc(C(=O)O)c3)NC(=O)[C@H](CC(=O)O)NC1=O)NC(=O)[C@H](CC(C)(C)C)NC(=O)[C@H](CC(=O)O)NC2=O` (stereo partly drawn) [I-2581, Ac-PL3-Asp-Npg-B5-Asp-3COOHF-Ala-Ala-Phe-Leu-SPip2-2F3MeF-BztA-Gln-NH2], for which the figures for the IC50 in experiment [1] and in experiment [2] were greater than 20000 nM and 205 nM, respectively.

For the molecule `CC(=O)N1CCC[C@]12CC=CCCCC1(CCCC=CCCCOC(=O)N3CCC(C(=O)N[C@@H](Cc4ccccc4C(F)(F)F)C(=O)N[C@@H](Cc4csc5ccccc45)C(=O)N[C@@H](CCC(N)=O)C(N)=O)(CC3)NC(=O)[C@H](CC(C)C)NC(=O)[C@H](Cc3ccccc3)NC(=O)[C@H](C)NC(=O)[C@H](C)NC(=O)[C@H](Cc3cccc(C(=O)O)c3)NC(=O)[C@H](CC(=O)O)NC1=O)NC(=O)[C@H](CC(C)(C)C)NC(=O)[C@H](CC(=O)O)NC2=O` (stereo partly drawn) [I-2582, Ac-PL3-Asp-Npg-B5-Asp-3COOHF-Ala-Ala-Phe-Leu-SPip2-2F3MeF-BztA-Gln-NH2], the half-inhibitory concentration (IC50) in experiment [1] is greater than 20000 nM; in experiment [2] it was 263 nM.

As to `CC(=O)N1CCC[C@]12CC=CCCCC1(CCCC=CCCCCOC(=O)N3CCC(C(=O)N[C@@H](Cc4ccccc4C(F)(F)F)C(=O)N[C@@H](Cc4csc5ccccc45)C(=O)N[C@@H](CCC(N)=O)C(N)=O)(CC3)NC(=O)[C@H](CC(C)C)NC(=O)[C@H](Cc3ccccc3)NC(=O)[C@H](C)NC(=O)[C@H](C)NC(=O)[C@H](Cc3cccc(C(=O)O)c3)NC(=O)[C@H](CC(=O)O)NC1=O)NC(=O)[C@H](CC(C)(C)C)NC(=O)[C@H](CC(=O)O)NC2=O` (stereo partly drawn) [I-2583, Ac-PL3-Asp-Npg-B5-Asp-3COOHF-Ala-Ala-Phe-Leu-SPip3-2F3MeF-BztA-Gln-NH2], the concentration for half-maximal inhibition (IC50) in experiment [1] is greater than 20000 nM; in experiment [2], 224 nM.

For `CC(=O)N1CCC[C@]12CC=CCCCC1(CCCC=CCCCOC(=O)N3CCC(C(=O)N[C@@H](Cc4ccsc4)C(=O)N[C@@H](Cc4csc5ccccc45)C(=O)N[C@@H](CCC(N)=O)C(N)=O)(CC3)NC(=O)[C@H](CC(C)C)NC(=O)[C@H](Cc3ccccc3)NC(=O)[C@H](C)NC(=O)[C@H](C)NC(=O)[C@H](Cc3cccc(C(=O)O)c3)NC(=O)[C@H](CC(=O)O)NC1=O)NC(=O)[C@H](CC(C)(C)C)NC(=O)[C@H](CC(=O)O)NC2=O` (stereo partly drawn) [I-2589, Ac-PL3-Asp-Npg-B5-Asp-3COOHF-Ala-Ala-Phe-Leu-SPip2-3Thi-BztA-Gln-NH2], the IC50 in experiment [1] was determined as 15200 nM; in experiment [2], 25 nM.

Regarding `CC(=O)N1CCC[C@]12CC=CCCCC1(CCCC=CCCCCOC(=O)N3CCC(C(=O)N[C@@H](Cc4ccsc4)C(=O)N[C@@H](Cc4csc5ccccc45)C(=O)N[C@@H](CCC(N)=O)C(N)=O)(CC3)NC(=O)[C@H](CC(C)C)NC(=O)[C@H](Cc3ccccc3)NC(=O)[C@H](C)NC(=O)[C@H](C)NC(=O)[C@H](Cc3cccc(C(=O)O)c3)NC(=O)[C@H](CC(=O)O)NC1=O)NC(=O)[C@H](CC(C)(C)C)NC(=O)[C@H](CC(=O)O)NC2=O` (stereo partly drawn) [I-2590, Ac-PL3-Asp-Npg-B5-Asp-3COOHF-Ala-Ala-Phe-Leu-SPip3-3Thi-BztA-Gln-NH2], the figures for the concentration for half-maximal inhibition (IC50) in experiment [1] and in experiment [2] were 18900 nM and 25 nM, respectively.

On to `CC(=O)N1CCC[C@]12CC=CCCCC1(CCCC=CCCCOC(=O)N3CCC(C(=O)N[C@@H](Cc4ccsc4)C(=O)N[C@@H](Cc4csc5ccccc45)C(=O)N[C@@H](C)C(N)=O)(CC3)NC(=O)[C@H](CC(C)C)NC(=O)[C@H](Cc3ccccc3)NC(=O)[C@H](C)NC(=O)[C@H](CCC(N)=O)NC(=O)[C@H](Cc3cccc(C(=O)O)c3)NC(=O)[C@H](CC(=O)O)NC1=O)NC(=O)[C@H](CC(C)(C)C)NC(=O)[C@H](CC(=O)O)NC2=O` (stereo partly drawn) [I-2592, Ac-PL3-Asp-Npg-B5-Asp-3COOHF-Gln-Ala-Phe-Leu-SPip2-3Thi-BztA-Ala-NH2], for which the concentration for half-maximal inhibition (IC50) in experiment [1] was greater than 20000 nM; in experiment [2], 37 nM.

Turning to `CC(=O)N1CCC[C@]12CC=CCCCC1(CCCC=CCCCOC(=O)N3CCC(C(=O)N[C@@H](Cc4ccsc4)C(=O)N[C@@H](Cc4csc5ccccc45)C(=O)N[C@@H](C)C(N)=O)(CC3)NC(=O)[C@H](CC(C)C)NC(=O)[C@H](Cc3ccccc3)NC(=O)[C@H](C)NC(=O)[C@H](CCC(N)=O)NC(=O)[C@H](Cc3cccc(C(=O)O)c3)NC(=O)[C@H](CC(=O)O)NC1=O)NC(=O)[C@H](CC(C)(C)C)NC(=O)[C@H](CC(=O)O)NC2=O` (stereo partly drawn) [I-2593, Ac-PL3-Asp-Npg-B5-Asp-3COOHF-Gln-Ala-Phe-Leu-SPip2-3Thi-BztA-Ala-NH2], the concentration for half-maximal inhibition (IC50) was 29400 nM in experiment [1] and 27 nM in experiment [2].

Values taken from patent US20240116985A1, “STAPLED PEPTIDES AND METHODS THEREOF” (priority 2020, published 2024).
